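Dose response: 5 concentrations. Exposure: 48 h. Format: 96-well plates. Endpoint: linear interpolation; highest concentration if not reached. GI50: concentration for 50% inhibition of growth.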 Active and inactive are the calls of the source. Cut-off read from the data, not from the text of the source: active = GI50 up to about 1.1 µM and inactive = higher.
Assays:
Experiment in all cases: NCI anticancer screen, dose series, 48 h
[1] = tested on: A549
[2] = tested on: BT-549
[3] = tested on: HCT-116
[4] = tested on: HL-60
[5] = tested on: HOP-92
[6] = tested on: Hs-578T
[7] = tested on: K562
[8] = tested on: LOX IMVI
[9] = tested on: MDA-MB-435
[10] = tested on: MDA-N
[11] = tested on: Malme-3M
[12] = tested on: NCI-H522
[13] = tested on: SF-268
[14] = tested on: SF-295
[15] = tested on: SF-539
[16] = tested on: SK-MEL-28
[17] = tested on: SK-MEL-2
[18] = tested on: SK-MEL-5
[19] = tested on: SNB-75
[20] = tested on: UACC-257

SMILES | GI50 [1] | GI50 [2] | GI50 [3] | GI50 [4] | GI50 [5] | GI50 [6] | GI50 [7] | GI50 [8] | GI50 [9] | GI50 [10] | GI50 [11] | GI50 [12] | GI50 [13] | GI50 [14] | GI50 [15] | GI50 [16] | GI50 [17] | GI50 [18] | GI50 [19] | GI50 [20]
COc1cc(C2c3cc4c(cc3OC(C)(N3CCCC3)C2C)OCO4)cc(OC)c1OC (stereo not given) | 0.515 µM (active) | 0.232 µM (active) | 0.433 µM (active) | 0.182 µM (active) | 2.19 µM (inactive) | 0.273 µM (active) | 0.197 µM (active) | 0.452 µM (active) | 0.128 µM (active) | 0.154 µM (active) | 0.343 µM (active) | 0.209 µM (active) | 0.714 µM (active) | 0.223 µM (active) | 0.229 µM (active) | 0.798 µM (active) | 0.405 µM (active) | 0.247 µM (active) | 0.269 µM (active) | 0.437 µM (active)
COc1cccc(C2c3cc4c(cc3OC(NNC(N)=O)C2C)OCO4)c1OC (stereo not given) | 19.6 µM (inactive) | 20.1 µM (inactive) | 14.1 µM (inactive) | 20.8 µM (inactive) | 19.1 µM (inactive) | 19.7 µM (inactive) | 19.5 µM (inactive) | 19.1 µM (inactive) | 19.9 µM (inactive) | 18 µM (inactive) | 25.9 µM (inactive) | 20.4 µM (inactive) | 27.7 µM (inactive) | 18.1 µM (inactive) | 15.4 µM (inactive) | 21.4 µM (inactive) | 20.5 µM (inactive) | 19.6 µM (inactive) | 15.8 µM (inactive) | 27.3 µM (inactive)
CN(C)c1ccc(-c2nc(-c3cc4c(ccc5ccccc54)oc3=O)cs2)cc1 | > 100 µM (inactive) | > 100 µM (inactive) | > 100 µM (inactive) | > 100 µM (inactive) | > 100 µM (inactive) | > 100 µM (inactive) | > 100 µM (inactive) | > 100 µM (inactive) | > 100 µM (inactive) | > 100 µM (inactive) | > 100 µM (inactive) | > 100 µM (inactive) | > 100 µM (inactive) | > 100 µM (inactive) | > 100 µM (inactive) | > 100 µM (inactive) | > 100 µM (inactive) | > 100 µM (inactive) | > 100 µM (inactive) | > 100 µM (inactive)
C1CCN2CC34CC(CC5CCCN(C6CCCC3N6)C54)C2C1 (stereo not given) | > 100 µM (inactive) | > 100 µM (inactive) | > 100 µM (inactive) | > 100 µM (inactive) | > 100 µM (inactive) | > 100 µM (inactive) | > 100 µM (inactive) | > 100 µM (inactive) | > 100 µM (inactive) | > 100 µM (inactive) | > 100 µM (inactive) | > 100 µM (inactive) | > 100 µM (inactive) | > 100 µM (inactive) | > 100 µM (inactive) | > 100 µM (inactive) | > 100 µM (inactive) | > 100 µM (inactive) | > 100 µM (inactive) | > 100 µM (inactive)
CCC/C=C/C=C/C(=O)OC1C(C)C2(O)C3C=C(C)C(=O)C3CC(COC(C)=O)=CC2C2C(C)(C)C12OC(=O)C(C)C (stereo not given) | 0.406 µM (active) | 20.7 µM (inactive) | 13.8 µM (inactive) | 0.532 µM (active) | 8.81 µM (inactive) | 0.084 µM (active) | 0.091 µM (active) | 19.7 µM (inactive) | 0.303 µM (active) | 0.29 µM (active) | 13.4 µM (inactive) | 13.4 µM (inactive) | 13.8 µM (inactive) | 0.462 µM (active) | 11.7 µM (inactive) | 13 µM (inactive) | 18.4 µM (inactive) | 1.84 µM (inactive) | 10.3 µM (inactive) | 16.7 µM (inactive)

From ChEMBL document CHEMBL1201862, “PubChem BioAssay data set” (2004)
